Our source for the Ki values is BindingDB's records for doi:10.1016/j.bmc.2006.06.019 (University of Tennessee Health Science Center, 2006).

In general, Ki refers to the dissociation constant of the complex between target and ligand, obtained from inhibition or displacement. A low value points to tighter binding.

This assay addresses T1, Androgen receptor (Rattus norvegicus, UniProt P15207).
T1 sequence (P15207 whole entry): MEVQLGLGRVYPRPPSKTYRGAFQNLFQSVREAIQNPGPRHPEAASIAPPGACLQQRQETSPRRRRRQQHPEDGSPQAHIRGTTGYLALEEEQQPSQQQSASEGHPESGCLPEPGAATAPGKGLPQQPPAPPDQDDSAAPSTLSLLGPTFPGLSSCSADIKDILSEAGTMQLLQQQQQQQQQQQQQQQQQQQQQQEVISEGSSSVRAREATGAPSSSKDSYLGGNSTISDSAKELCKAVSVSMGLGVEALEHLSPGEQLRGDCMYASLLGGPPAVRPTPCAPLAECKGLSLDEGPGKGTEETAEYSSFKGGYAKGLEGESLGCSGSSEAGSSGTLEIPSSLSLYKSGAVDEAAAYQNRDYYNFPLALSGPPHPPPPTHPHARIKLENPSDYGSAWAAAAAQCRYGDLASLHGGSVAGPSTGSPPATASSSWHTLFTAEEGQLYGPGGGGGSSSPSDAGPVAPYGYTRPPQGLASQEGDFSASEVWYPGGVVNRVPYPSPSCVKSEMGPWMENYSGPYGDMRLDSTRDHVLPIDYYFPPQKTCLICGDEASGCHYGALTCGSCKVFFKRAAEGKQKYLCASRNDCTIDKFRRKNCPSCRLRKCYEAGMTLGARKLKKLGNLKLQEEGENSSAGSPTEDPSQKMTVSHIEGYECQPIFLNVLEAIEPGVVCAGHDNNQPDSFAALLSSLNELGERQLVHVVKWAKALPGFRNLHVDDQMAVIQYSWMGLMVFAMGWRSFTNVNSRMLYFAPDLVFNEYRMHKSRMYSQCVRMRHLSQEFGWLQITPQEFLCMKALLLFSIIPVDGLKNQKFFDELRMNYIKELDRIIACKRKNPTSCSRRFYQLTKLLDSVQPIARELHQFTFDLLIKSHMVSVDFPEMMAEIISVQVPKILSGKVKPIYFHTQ
Description: Competitive Radioligand Displacement Assay. The conditions noted are these: pH 7.4; 4 °C. On the procedure:
The Ki values were determined by the application of the Cheng-Prusoff equation: Ki = (IC50 x Kd)/(Kd+[L]) where [L] is the concentration of [3H]MIB (1 nM ) and Kd is the dissociation constant of the [3H]MIB determined in the saturation analysis (Kd=0.19 nM for MIB).
(In general: Displacement assays read how much labelled ligand stays bound in the presence of the test substance.)

`C[C@@](O)(COc1ccc(N=C=S)cc1)C(=O)Nc1ccc([N+](=O)[O-])c(C(F)(F)F)c1` [(2R)-2-hydroxy-3-(4-isothiocyanatophenoxy)-2-methyl-N-[4-nitro-3-(trifluoromethyl)phenyl]propanamide]: the Ki worked out at 36.2 nM.

Compound `C[C@](O)(CSc1ccc(N=C=S)cc1)C(=O)Nc1ccc([N+](=O)[O-])c(C(F)(F)F)c1` [(2R)-2-hydroxy-3-[(4-isothiocyanatophenyl)sulfanyl]-2-methyl-N-[4-nitro-3-(trifluoromethyl)phenyl]propanamide] gave a Ki of 54.8 nM.

As for `C[C@](O)(COc1ccc(N=C=S)c(F)c1)C(=O)Nc1ccc([N+](=O)[O-])c(C(F)(F)F)c1` [(2S)-3-(3-fluoro-4-isothiocyanatophenoxy)-2-hydroxy-2-methyl-N-[4-nitro-3-(trifluoromethyl)phenyl]propanamide], the Ki is 12.6 nM. This Ki is about 4.3-fold lower than that of the compound before.
